{"source": "patent US12703679B2", "about": "“Sulfone compounds and pharmaceutical compositions thereof, and their therapeutic applications” (Cura Therapeutics, LLC, priority 2019, dated 2026)", "key": {"Aß40 in CSF": {"tested_on": "Aß40 in CSF", "assay": "Reduction of Aß40 in CSF of Sprague Dawley rats after single dose intravenous and oral administration", "assay_type": "in vivo", "method": "This non-GLP study had two groups that received compound A1 by intravenous (IV) and oral (PO) administration with 3-6 male rats in each group. Rats received an IV dose of compound A1 at 1 mg/kg. Rats received a PO dose of compound A1 at 10 mg/kg. Plasma samples were collected pre-dose, 0.167 (10 min), 0.5, 1, 2, 4, 6, 8, 12, and 24 h post-dose. CSF samples were collected pre-dose, 0.5, 1, 2, 4, 8, 12, and 24 hours post-dose."}, "Aß40": {"tested_on": "Aß40", "assay": "Attenuating the amyloid β40 level in neurons differentiated from familial Alzheimer's disease patient iPSCs (ELISA)", "assay_type": "cell-based, human", "conditions": "10 μM test compound, FIG. 3", "method": "Induced pluripotent stem cells from a familial Alzheimer's disease patient carrying a duplication of the amyloid precursor protein gene were differentiated to neurons using standard protocols. Israel et al., Nature 2012, 482, 216-220. Neural precursor cells were plated on 24-well plates and differentiated to neurons over three weeks. There was an exponential increase in the levels of Aß secreted in these cells starting on Day 4 in culture. […]"}}, "data": [{"compound": "Cc1ccc(C(F)(F)F)cc1CS(=O)(=O)c1cccc(C(=O)O)c1", "note": "[Compound A1, 3-((2-methyl-5-(trifluoromethyl)benzyl)sulfonyl)benzoic acid]", "values": [{"measurement": "reduction of Aß40 in CSF", "setting": "Aß40 in CSF; single IV dose 1 mg/kg, rats, by 4 h post administration, FIG. 5", "result": "20-60%"}, {"measurement": "time Aß40 levels in CSF remained lower than starting levels", "setting": "Aß40 in CSF; single PO dose 10 mg/kg, male rats, FIG. 4", "result": "up to 24 h"}, {"measurement": "decrease of Aß40 in CSF", "setting": "Aß40 in CSF; single PO dose 10 mg/kg, male rats, by 2 h post administration, FIG. 4", "result": "up to 50%"}]}, {"compound": "COc1cc(CS(=O)(=O)c2cccc(C(=O)O)c2)cc(OC)c1", "note": "[Compound A2, 3-((3,5-dimethoxybenzyl)sulfonyl)benzoic acid]", "values": [{"measurement": "decrease of Aß40 relative to untreated cells (PBS)", "setting": "Aß40; daily treatment, by Day 6 of treatment, iPSC-derived neurons", "result": "greater than 30%"}, {"measurement": "reduction of Aß40 relative to untreated cells (PBS)", "setting": "Aß40; within 24 h, iPSC-derived neurons (APP gene duplication)", "result": 20, "unit": "%"}]}]}
